Values quoted from earlier work, collected in patent US11925657B2, “Formulations and methods for treating conditions of the eye” (Sight Sciences, Inc., priority 2020, dated 2024).

What was measured:
[1] = antibiotic levels of azithromycin (1%)
[2] = lower concentrations, e.g. 0.1% and 0.35%

Molecule: CC[C@H]1OC(=O)[C@H](C)[C@@H](O[C@H]2C[C@@](C)(OC)[C@@H](O)[C@H](C)O2)[C@H](C)[C@@H](O[C@@H]2O[C@H](C)C[C@H](N(C)C)[C@H]2O)[C@](C)(O)C[C@@H](C)CN(C)[C@H](C)[C@@H](O)[C@]1(C)O [azithromycin]
- phase transition temperature of meibum lipids and lipid ordering [1]: can improve

Molecule: ivermectin
- efficacy toward intended rosacea treatment [2]: lose efficacy
